Tested on: NCI-H196 SCLC complex tumor spheroid viability
Assay: Anticancer human tumor NCI-H196 cell line growth inhibition;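 note: spheroids exposed to compounds for 7 days before readout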;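 for viability, T/C: 100% = DMSO vehicle control wells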
Conditions: for IC50: curve of first compound; for viability, T/C: stronger effect = lower value; active = viability on the fitted dose curve at most 10% of control; inactive = the rest
In short: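 Single agents and combinations were tested on spheroids built from tumor cells plus HUVEC and hMSC, at half-log dilutions starting at or near clinical Cmax, else 10 microM; final DMSO 0.25% (v/v).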

CNCc1ccc(-c2cc(-c3nc(-c4ccc(S(=O)(=O)C(C)C)cc4)cnc3N)on2)cc1 + COc1cc2c(cc1O)CCNC21CSC2c3c(OC(C)=O)c(C)c4c(c3C(COC1=O)N1C(O)C3Cc5cc(C)c(OC)c(O)c5C(C21)N3C)OCO4
> 3 µM: IC50 (second compound 30 pM) | IC50 (second compound 94.9 pM) | IC50 (second compound 0.0003 µM) | IC50 (second compound 0.000949 µM)
< 0.00949 µM: IC50 (second compound 0.003 µM)
inactive: viability, T/C (second compound 30 pM, first compound 0.00949 µM) 107% | viability, T/C (second compound 30 pM, first compound 0.03 µM) 99% | viability, T/C (second compound 30 pM, first compound 0.0949 µM) 104% | viability, T/C (second compound 30 pM, first compound 0.3 µM) 103% | viability, T/C (second compound 30 pM, first compound 0.949 µM) 98% | viability, T/C (second compound 30 pM, first compound 3 µM) 91.4% | viability, T/C (second compound 94.9 pM, first compound 0.00949 µM) 105% | viability, T/C (second compound 94.9 pM, first compound 0.03 µM) 107% | viability, T/C (second compound 94.9 pM, first compound 0.0949 µM) 103% | viability, T/C (second compound 94.9 pM, first compound 0.3 µM) 107% | viability, T/C (second compound 94.9 pM, first compound 0.949 µM) 96.4% | viability, T/C (second compound 94.9 pM, first compound 3 µM) 95.9% | viability, T/C (second compound 0.0003 µM, first compound 0.00949 µM) 112% | viability, T/C (second compound 0.0003 µM, first compound 0.03 µM) 112% | viability, T/C (second compound 0.0003 µM, first compound 0.0949 µM) 112% | viability, T/C (second compound 0.0003 µM, first compound 0.3 µM) 105% | viability, T/C (second compound 0.0003 µM, first compound 0.949 µM) 96.4% | viability, T/C (second compound 0.0003 µM, first compound 3 µM) 93.3% | viability, T/C (second compound 0.000949 µM, first compound 0.00949 µM) 99.2% | viability, T/C (second compound 0.000949 µM, first compound 0.03 µM) 103% | viability, T/C (second compound 0.000949 µM, first compound 0.0949 µM) 103% | viability, T/C (second compound 0.000949 µM, first compound 0.3 µM) 94.3% | viability, T/C (second compound 0.000949 µM, first compound 0.949 µM) 91.3% | viability, T/C (second compound 0.000949 µM, first compound 3 µM) 86.6% | viability, T/C (second compound 0.003 µM, first compound 0.00949 µM) 9.83% | viability, T/C (second compound 0.003 µM, first compound 0.03 µM) 26.7% | viability, T/C (second compound 0.003 µM, first compound 0.0949 µM) 27.7% | viability, T/C (second compound 0.003 µM, first compound 0.3 µM) 13.2% | viability, T/C (second compound 0.003 µM, first compound 0.949 µM) 18.2% | viability, T/C (second compound 0.003 µM, first compound 3 µM) 40.3%

COc1cc(C)[nH]c(=O)c1CN1CCc2c(Cl)cc(C(OC)C3COC3)c(Cl)c2C1=O (stereo not given) + COc1cc2c(cc1O)CCNC21CSC2c3c(OC(C)=O)c(C)c4c(c3C(COC1=O)N1C(O)C3Cc5cc(C)c(OC)c(O)c5C(C21)N3C)OCO4
> 10 µM: IC50 (second compound 30 pM) | IC50 (second compound 94.9 pM) | IC50 (second compound 0.0003 µM) | IC50 (second compound 0.000949 µM)
active: viability, T/C (second compound 0.003 µM, first compound 0.1 µM) 5.38% | viability, T/C (second compound 0.003 µM, first compound 0.316 µM) 7.56% | viability, T/C (second compound 0.003 µM, first compound 1 µM) 12.5% | viability, T/C (second compound 0.003 µM, first compound 3.16 µM) 5.22% | viability, T/C (second compound 0.003 µM, first compound 10 µM) 2.69%
< 0.0316 µM: IC50 (second compound 0.003 µM)
inactive: viability, T/C (second compound 30 pM, first compound 0.0316 µM) 104% | viability, T/C (second compound 30 pM, first compound 0.1 µM) 101% | viability, T/C (second compound 30 pM, first compound 0.316 µM) 95.8% | viability, T/C (second compound 30 pM, first compound 1 µM) 101% | viability, T/C (second compound 30 pM, first compound 3.16 µM) 97.8% | viability, T/C (second compound 30 pM, first compound 10 µM) 98.4% | viability, T/C (second compound 94.9 pM, first compound 0.0316 µM) 107% | viability, T/C (second compound 94.9 pM, first compound 0.1 µM) 96.5% | viability, T/C (second compound 94.9 pM, first compound 0.316 µM) 103% | viability, T/C (second compound 94.9 pM, first compound 1 µM) 95.4% | viability, T/C (second compound 94.9 pM, first compound 3.16 µM) 99.1% | viability, T/C (second compound 94.9 pM, first compound 10 µM) 104% | viability, T/C (second compound 0.0003 µM, first compound 0.0316 µM) 100% | viability, T/C (second compound 0.0003 µM, first compound 0.1 µM) 105% | viability, T/C (second compound 0.0003 µM, first compound 0.316 µM) 98.8% | viability, T/C (second compound 0.0003 µM, first compound 1 µM) 97.1% | viability, T/C (second compound 0.0003 µM, first compound 3.16 µM) 94.6% | viability, T/C (second compound 0.0003 µM, first compound 10 µM) 97.8% | viability, T/C (second compound 0.000949 µM, first compound 0.0316 µM) 83.7% | viability, T/C (second compound 0.000949 µM, first compound 0.1 µM) 80.3% | viability, T/C (second compound 0.000949 µM, first compound 0.316 µM) 83% | viability, T/C (second compound 0.000949 µM, first compound 1 µM) 80.9% | viability, T/C (second compound 0.000949 µM, first compound 3.16 µM) 87% | viability, T/C (second compound 0.000949 µM, first compound 10 µM) 77.9% | viability, T/C (second compound 0.003 µM, first compound 0.0316 µM) 18.9%

Reference: PubChem BioAssay AID1845208 (Molecular Pharmacology Branch, DTP, NCI, 2023)
